The text below walks through data of US4382871A, “Detergent compositions” (Lever Brothers Company, priority 1980, dated 1983).

The subject of one data set is Webster mice. The experiment in a line: acute oral toxicity (LD50) in Webster mice. The data set is classed as in vivo. As to conditions: from LD50. The text has this:
(§1) As stated above, a particular advantage of the builders of the present invention over the salts of unsubstituted oxydiacetic acid, is their lower toxicity. For example, using Webster mice, the acute oral toxicity data, (LD50), i.e., the dosage in grams per kilogram of body weight which is lethal for 50% of the mice, for two of the preferred embodiments compared to disodium oxydiacetate are as follows: […]

Data set [1] in a line: acute oral toxicity (LD50) in Webster mice. The format is in vivo. To be noted: mouse, in vivo, read-out: LD50 (dosage which is lethal for 50% of the mice).
From the text: as §1

The conditions of data set [2]: if accidentally swallowed; cited from earlier work.

Usually LD50 stands for the dose at which mortality reaches 50%. `O=C([O-])COCC(=O)[O-].[Na+].[Na+]` [reference compound]: the “Remarks (toxicity classification)” value with Webster mice was “slightly toxic”. Moreover, in data set [1], the LD50 turned out to be 2850 mg/kg. trisodium polyphosphate: in data set [2], the emetic properties entry is recorded as “emetic properties”. For the compound `CC(OCC(=O)[O-])C(=O)[O-].[Na+].[Na+]` (stereo not shown), the “Remarks (toxicity classification)” value in the data set on Webster mice is “non-toxic”. Further, the LD50 in data set [1] is more than 5000 mg/kg.

For the compound `CC(OC(C)C(=O)[O-])C(=O)[O-].[Na+].[Na+]` (stereo not shown), the “Remarks (toxicity classification)” value in the data set with Webster mice is reported as “non-toxic”. Moreover, the LD50 in data set [1] was more than 5000 mg/kg.
